Experimental data published in patent US11780868B1, “Homoleptic metal coordination complexes as antifungal agents” (King Abdulaziz University, priority 2023, dated 2023).

Columns and labels:
Assay type in all cases: cell-based, Candida albicans
[1] = test system: C. albicans cells; test: TUNEL assay for DNA fragmentation; details: 0.5×MIC and 1×MIC, concentration dependent
Protocol: To examine the effect of C1 on the induction of cellular apoptosis in C. albicans cells, crucial apoptotic markers were observed. For this purpose, C. albicans 4251 and C. albicans 5112 cells were subjected to protoplast preparation by utilizing a method described previously by Srivastava et al. in 2020 through their research study. Briefly, cells were grown overnight and were exposed for 4 h with different concentrations of C1 (0.5×MIC and 1×MIC) and H2O2 (positive control) whereas, untreated cells were used as a negative control. Later on, the cells were washed and incubated for 10 min at room temperature in protoplast buffer-1 (1M sorbitol, 0.05M tris base, 0.01M MgCl2, 0.03M DTT, pH 7.4). The cells were spun at 1500 rpm for 5 min and the pellet was resuspended in protoplast buffer-2 (1M sorbitol, 0.05M tris base, 0.01M MgCl2, 0.001M DTT, pH 7.4) supplemented with lyticase enzyme (1 μg/mL) and incubated for 1 h at room temperature. […]
We further performed an assay to detect the presence of DNA damage in C. albicans, an indicator of late-stage apoptosis. […] The protoplasts were again washed with PBS and all the samples were examined under a fluorescence microscope using Zeiss Laser Scanning Confocal Microscope (LSM) 780 (Carl Zeiss Microscopy, Jena, Germany). […]

[2] = test system: C. albicans 5112; test: JC-10 mitochondrial membrane potential assay; details: 4 h, negative control 2.92
Protocol: (§1) To examine the effect of C1 on the induction of cellular apoptosis in C. albicans cells, crucial apoptotic markers were observed. For this purpose, C. albicans 4251 and C. albicans 5112 cells were subjected to protoplast preparation by utilizing a method described previously by Srivastava et al. in 2020 through their research study. […] Later on, the cells were washed and incubated for 10 min at room temperature in protoplast buffer-1 (1M sorbitol, 0.05M tris base, 0.01M MgCl2, 0.03M DTT, pH 7.4). The cells were spun at 1500 rpm for 5 min and the pellet was resuspended in protoplast buffer-2 (1M sorbitol, 0.05M tris base, 0.01M MgCl2, 0.001M DTT, pH 7.4) supplemented with […] enzyme (1 μg/mL) and incubated for 1 h at room temperature. Afterwards, the cell suspension was again centrifuged, and the pellet was resuspended and incubated for 20 min at room temperature in protoplast buffer-3 (1M sorbitol, 0.05M tris base, 0.01M MgCl2, pH 7.4). A final washing (1500 rpm for 5 min) was given to the cells and the pellet consisting of C. albicans protoplasts was resuspended in fresh PBS and was stored at 4° C. until further use. Measurement of mitochondrial membrane potential in C. albicans was carried out and the potential of C1 in destabilising mitochondrial membrane potential (Δψm) in C. albicans was established by JC-10 mitochondrial membrane potential assay kit (Abeam, Cambridge, UK). The experiment was performed according to manufacturer instructions. 90 μL of prepared protoplast of C. albicans 4251 and C. albicans 5112 was added to a 96-well microplate (with black walls and clear bottom), followed by the addition of 50 μL/well of JC-10 dye-loading solution. The microplate was incubated for 1 hour at 37° C. in the dark. This was followed by the addition of 50 μL/well of assay buffer B. The microplate was then immediately centrifuged at 800 rpm for 2 minutes. The fluorescence intensity was monitored at an Ex/Em=490/530 nm (present in apoptotic cells, monomeric form and green fluorescence; represented as X) and 540/590 nm (present in live cells, dye aggregates and red fluorescence; represented as Y) using a SpectraMax® ID3 Multimode Plate Reader (Molecular Devices, LLC., USA). The ratio between the aggregate and monomeric forms was measured to find the change in mitochondrial membrane potential. The mitochondrial membrane depolarization is indicated by decreasing ratio values.

[3] = test system: C. albicans 4251; test: JC-10 mitochondrial membrane potential assay; details: 4 h, negative control 2.65
Protocol: as §1

`Brc1ccc([O][Co][O]c2ccc(Br)cc2C=Nc2ccc3c(c2)OCCO3)c(C=Nc2ccc3c(c2)OCCO3)c1` [Complex C1, [Co(L)2]] was tested, and the “DNA fragmentation (TUNEL-positive cells)” value [1] was “effective at inducing DNA fragmentation”, the “average fluorescence ratio JC-10 aggregates/JC-10 monomers” value ([2]; C. albicans 5112, 0.5×MIC) was 2.24 and the “average fluorescence ratio JC-10 aggregates/JC-10 monomers” value ([2]; C. albicans 5112, 1×MIC) was 1.71. For the same compound, the “average fluorescence ratio JC-10 aggregates/JC-10 monomers” value ([3]; C. albicans 4251, 0.5×MIC) was 2.04 and the “average fluorescence ratio JC-10 aggregates/JC-10 monomers” value ([3]; C. albicans 4251, 1×MIC) was 1.6.
